According to patent EP0961591B1, “METHOD TO ENHANCE TISSUE AC[…] RADIOLABELED COMPOUNDS” (BOARD OF SUPERVISORS OF LOUISIANA STATE UNIVERSITY AND …, priority 1997, dated 1999):
pKd: −log10 of the molar value. Like-named read-outs stand apart in the source and are kept apart here.

Key:
IMR-32 = assay: Peptide binding and internalization assay; set-up: species or system human
Procedure: Cell lines were obtained from the ATCC (IMR-32 and SKNSH) or from Ohio State University (Columbus, Ohio) (SK-R2). All cells lines were maintained in 5% CO2 at 37°C in media defined by the suppliers of the cell lines.
Cells were harvested, counted with a hemocytometer, and resuspended in binding buffer (Minimum Essential Medium (MEM), 10 mM Hepes, 0.01% BSA). A standard assay used 500,000 cells in 1 ml of binding buffer. Radioactive ligand alone (500,000 cpm), or in combination with at least 1,000-fold molar excess (10^-6 M) non-radioactive compound (to calculate specific binding), was added to a final volume of 1 ml. At the termination of the experiment, the incubation medium was removed, the cells were rinsed twice with Hanks balanced salt solution (HBSS), and the radioactivity in the cells determined using a gamma counter. This level of radioactivity represents total binding, which includes both membrane-bound and internalized fractions. Specific binding was determined by calculating the difference in the levels of measured radioactivity without the unlabeled competitor minus the radioactivity with the unlabeled competitor.
To differentiate between membrane and intracellular binding, cells were subsequently incubated for 10 min at 4°C with acidified HBSS (pH=4-5), rinsed in HBSS, and the radioactivity again determined using the gamma counter. Since the acid wash preferentially released the radioactive ligand from the external surface of the cell, remaining radioactivity was attributed to internalized fractions. Membrane-associated binding was then calculated as the difference between the total binding and internalized fractions.
The times for ligand binding and internalization were analyzed using the standard assay methods described above. […] The first series of experiments used IMR-32 cells that were exposed to a radioligand for varying periods of time (up to 72 hr). The incubation media was replaced at least every 48 hr.
The assay methods were as described in Example 2.

[1] = tested on: neuroendocrine cancers expressing the somatostatin receptor; assay: Pilot clinical trial of monthly 180 mCi doses; type: in vivo, human; details: ten patients
Procedure: For six months, pilot clinical trials were conducted in ten human patients with progressive metastatic indolent and symptomatic neuroendocrine cancers expressing the somatostatin receptor. […] The first monthly dose was a bolus injection of 180 mCi. The second monthly dose was infusion of 180 mCi over 72 hr. The third monthly dose was infusion of 180 mCi over 24 hr. Thereafter, all monthly doses were infusion of 180 mCi over 24 hr. Clinical benefits (as evidenced by reduced pain, weight gain, reduced malaise, etc.) occurred in 6 of the 10 neuroendocrine (carcinoid/islet cell) patients. Partial radiographic responses (greater than 50% reduction in the product of perpendicular tumor diameters) occurred in 2 patients, and significant tumor necrosis developed in 7 of the 10 neuroendocrine patients. Treatment-related toxicity included 2 Grade III platelet, 1 Grade II WBC, 1 Grade I WBC and 2 Grade I Hb on the NCI (National Cancer Institute) grading scale.

[2] = tested on: human angiogenic vascular tissue; assay: Human Placental Vein Angiogenesis Model; type: cell-based; details: 50 µCi/mL (or equivalent amounts), 14 days
Description: Watson et al., "Up-Regulation of Somatostatin Receptor Subtype 2 (SST-2) mRNA Occurs During the Transformation of Human Endothelium to the Angiogenic Phenotype," Paper Presented at the 12th International Symposium on Regulatory Peptides, Copenhagen, Denmark, September 1996; J.C. Watson et al., "SST-2 Gene Expression Appears During Human Angiogenesis," Regulatory Peptides, vol. 64, p. 206 (Abstract) (1996); and J.C. Watson et al., "Breast Cancer Increases Initiation of Angiogenesis Without Accelerating Neovessel Growth Rate," Surgery, vol. 122, pp. 508-14 (1997). Human placental veins were cut into discs of 2 mm diameter and were incorporated into a 0.3% fibrinogen gel. This gel was then overlaid with tissue culture media containing 10-20 % fetal calf serum (FCS). Under normal conditions, endothelial cords will begin to sprout from the transected cut edge of the vein discs within six days.
These vein discs were placed into wells of three separate culture plates. One culture plate, the control sample, was allowed to grow without treatment. […] The discs were then incubated for fourteen days. […]
Using a digital image analyzer, the mean area of the sprouting tissue surrounding the discs was measured.
To measure the growth rate of angiogenic vascular tissue, every two days during the 14-day incubation period, the length of sprouts were measured. […]

[3] = tested on: tumor in the left side of the neck
Procedure: During and after each administration of the last eight doses, a tumor in the left side of the neck was monitored for radioligand uptake with an ion chamber survey meter, a Victoreen 450P ion chamber, which measures external gamma dose rates. Administration of the initial seven doses were by bolus injection. The last three doses were delivered by infusion with various activities of radioligand.
The external gamma dose rates from radioligand accumulation in the neck tumor area were measured immediately and 24 hr after injection.
Four months after the final bolus dose, the first dose by infusion ("Infusion 1") was administered. A dose equivalent to the previous bolus dose (175.9 mCi) was given, but the radioligand was administered by infusion over 72 hr at a constant rate of 2.5 mCi/hr.
One month later, in "Infusion 2," the total dose was increased to 389.2 mCi. By infusion, 189.8 mCi of the radioligand was given over the first 24 hr, 108.6 mCi over the second 24 hr, and 90.8 mCi over the third 24 hr. For each 24 hr period, the infusion rate was kept constant.
One month later, a third dose was administered by infusion ("Infusion 3"). A dose of 301 mCi was infused the first 24 hr period. In two subsequent 24 hr periods, 25 and 21 mCi were infused.

[4] = IMR-32, competitor octreotide acetate
[5] = IMR-32 cells exposed to radioligand up to 72 hr
[6] = NCI grading scale, monthly 180 mCi doses

Q: With “(^111In-DTPA-D-Phe^1)-octreotide [^111In-pentetreotide]” as the substance, how does the “Total Binding (CPM ± SD), MEMBRANE” value (IMR-32; IMR-32, 1 CPM/cell) read?
A: The value was 2,373 ± 417 CPM.

Q: What about the “Total Binding (CPM ± SD), TOTAL” value (IMR-32; IMR-32, 1 CPM/cell) of the same substance?
A: Its value is 4,780 ± 928 CPM.

Q: What about the “Total Binding (CPM ± SD), INTRACELLULAR” value (IMR-32; IMR-32, 1 CPM/cell, after acid wash) of the same substance?
A: Its value is 2,408 ± 51 CPM.

Q: What about the pKd (IMR-32; IMR-32, Scatchard plot analysis, read-out: Kd (apparent dissociation constant)) of the same substance?
A: Its pKd is 8.40.

Q: And the “Specific Binding (CPM), INTRACELLULAR” value (IMR-32; [4])?
A: Its value is 1.536 CPM.

Q: And the “Specific Binding (CPM), MEMBRANE” value (IMR-32; [4])?
A: Its value is 2,372 CPM.

Q: And the “Specific Binding (CPM), TOTAL” value (IMR-32; [4])?
A: Its value is 3,908 CPM.

Q: What about the “fractions of total radioactivity incorporated into the cell” value (IMR-32; [5]) of the same substance?
A: Its value is 40-75%.

Q: And the “time of maximal binding” value (IMR-32; [5])?
A: Its value is 48 to 72 h.

Q: What about the “Treatment-related toxicity: Grade I Hb” value [1, 6] of the same substance?
A: Its value is 2.

Q: And the “Treatment-related toxicity: Grade I WBC” value [1, 6]?
A: Its value is 1.

Q: And the “Treatment-related toxicity: Grade II WBC” value [1, 6]?
A: Its value is 1.

Q: What about the “Treatment-related toxicity: Grade III platelet” value [1, 6] of the same substance?
A: Its value is 2.

Q: What about the “Clinical benefits (reduced pain, weight gain, reduced malaise, etc.)” value ([1]; monthly 180 mCi doses (bolus, then infusion over 72 hr, then 24 hr)) of the same substance?
A: The value was 6 of the 10.

Q: And the “Partial radiographic responses (greater than 50% reduction in the product of perpendicular tumor diameters)” value ([1]; monthly 180 mCi doses)?
A: Its value is 2 patients.

Q: What about the significant tumor necrosis ([1]; monthly 180 mCi doses) of the same substance?
A: The significant tumor necrosis was 7 of the 10.

Q: What about the “% initiation of angiogenic growth” value [2] of the same substance?
A: The value was “lowest % initiation”.

Q: And the vessel area ([2]; digital image analyzer)?
A: The vessel area was “the least area of new growth”.

Q: What about the “infusion ratio relative to the bolus ratio” value ([3]; Infusion 1) of the same substance?
A: Its value is 3 fold.

Q: What about the “infusion ratio relative to the bolus ratio” value ([3]; Infusion 2) of the same substance?
A: Its value is 4 fold.

Q: What about the “infusion ratio relative to the bolus ratio” value ([3]; Infusion 3) of the same substance?
A: Its value is 5 fold.

Q: What about the “highest ratio relative to the highest ratio from the bolus injection” value ([3]; Infusion Dose 1, after the first 24 hr infusion) of the same substance?
A: Its value is “almost five times higher”.

Q: What about the “tumor foci identifiable by gamma scintigraphy” value ([3]; Infusion Dose 3, gamma camera scintigraphy) of the same substance?
A: Its value is “still identifiable by gamma scintigraphy thirteen days after completion of the last infusion dose”.
